Data set [1] addresses T1, human GLP-1 receptor (Homo sapiens, UniProt P43220).
T1 construct: expressed in transfected cells; membranes
The data set can be described thus: GLP-1 receptor binding: displacement of 125I-GLP-1 (SPA) at low and high albumin. To be noted: for Ratio [(IC50/nM) high HSA]/[(IC50/nM) low HSA]: 2.0% HSA vs 0.001% HSA. The gist of the method:
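Membranes from hamster cells stably transfected with the receptor, with WGA SPA beads and 0.06 nM [^125I]-GLP-1(7-36)NH2, incubated 120 min at 30 °C with shaking.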

The target in data set [2] is T1, human GLP-1 receptor. Nature of the data set: In vitro potency: stimulation of cAMP formation (AlphaScreen cAMP Assay) in membranes expressing the human GLP-1 receptor. Format: biochemical. To be noted: membranes from BHK467-12A (tk-ts13) expressing the human GLP-1 receptor. Here is the method:
Purified plasma membranes from a stable transfected cell line, BHK467-12A (tk-ts13), expressing the human GLP-1 receptor were stimulated with the GLP-1 analogue or derivative in question, and the potency of cAMP production was measured using the AlphaScreen™ cAMP Assay Kit from Perkin Elmer Life Sciences. The basic principle of the AlphaScreen Assay is a competition between endogenous cAMP and exogenously added biotin-cAMP. The capture of cAMP is achieved by using a specific antibody conjugated to acceptor beads.
A stable transfected cell line and a high expressing clone were selected for screening. The cells were grown at 5% CO2 in DMEM, 5% FCS, 1% Pen/Strep (Penicillin/Streptomycin) and 0.5 mg/ml of the selection marker G418.
Cells at approximately 80% confluence were washed 2× with PBS and harvested with Versene (aqueous solution of the tetrasodium salt of ethylenediaminetetraacetic acid), centrifuged 5 min at 1000 rpm and the supernatant removed. The additional steps were all performed on ice. The cell pellet was homogenised by the Ultrathurax for 20-30 s in 10 ml of Buffer 1 (20 mM Na-HEPES, 10 mM EDTA, pH=7.4), centrifuged 15 min at 20,000 rpm and the pellet resuspended in 10 ml of Buffer 2 (20 mM Na-HEPES, 0.1 mM EDTA, pH=7.4). The suspension was homogenised for 20-30 s and centrifuged 15 min at 20,000 rpm. Suspension in Buffer 2, homogenisation and centrifugation was repeated once and the membranes were resuspended in Buffer 2. The protein concentration was determined and the membranes stored at −80° C. until use.
The final volume per well was 50 μl.
AlphaScreen cAMP Assay Kit from Perkin Elmer Life Sciences (cat. No: 6760625M); containing Anti-cAMP Acceptor beads (10 U/μl), Streptavidin Donor beads (10 U/μl) and Biotinylated-cAMP (133 U/μl).
cAMP standard (dilution factor in assay=5): cAMP Solution: 5 μL of a 5 mM cAMP-stock+495 μL AlphaScreen Buffer.
Membranes were prepared from hGLP-1/BHK 467-12A cells with a concentration of 6 μg/well corresponding to 0.6 mg/ml (the amount of membranes used pr. well may vary)
“No membranes”: Acceptor Beads (15 μg/ml final) in AlphaScreen buffer
“6 μg/well membranes”: membranes+Acceptor Beads (15 μg/ml final) in AlphaScreen buffer
An aliquot (10 μl) of “No membranes” was added to the cAMP standard (per well in duplicate wells) and the positive and negative controls
An aliquot (10 μl) of “6 μg/well membranes” was added to GLP-1 and analogues (per well in duplicate or triplicate wells)
Pos. Control: 10 μl “no membranes”+10 μl AlphaScreen Buffer
Neg. Control: 10 μl “no membranes”+10 μl cAMP Stock Solution (50 μM)
1. Make the AlphaScreen Buffer.
2. Dissolve and dilute the GLP-1/Analogues/cAMP standard in AlphaScreen Buffer.
4. Add the cAMP/GLP-1/Analogues to the plate: 10 μl per well.
5. Prepare membrane/Acceptor Beads solution and add this to the plates: 10 μl per well.
6. Add the Donor Beads: 30 μl per well.

Data set [3] in a line: Estimate of oral bioavailability: gut injection in rat (caprate), exposure in plasma. The data set is classed as in vivo. As to conditions: injection in jejunum, 1000 uM in 55 mg/ml sodium caprate, plasma concentration (pM) at 30 min divided by dosing solution concentration (μM), mean n=4. Summed up:
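Male Sprague Dawley rats (~240 g, n=4) received 100 μl of 1000 uM derivative in 55 mg/ml sodium caprate by catheter into proximal or mid jejunum. Tail-vein EDTA plasma was sampled up to 240 min. Peptide was quantified by two-antibody bead chemiluminescence immunoassay, giving mean concentration-time profiles (pmol/l).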

The EC50 is the concentration that produces a half-maximal response. Low readings indicate greater potency, high ones weaker potency.

Read-outs that look alike come from different tables or passages of the source. Numbered stars: 1 amine (or outer) side, 2 acyl side, 3 side chain; on linkers, the order of the positions; unused ones are H or OH. Square brackets hold non-standard residues; d marks the D form. Side chains are listed from the residue outwards. Peptide text beside a SMILES is read from it. * marks the point of attachment. Decanoyl(10-(4-HOOC-PhO)) = O=C(O)c1ccc(OCCCCCCCCCC(=O)*)cc1; γGlu = O=C(O)[C@H](CCC(=O)[*:2])N[*:1]; C14 diacid = O=C(O)CCCCCCCCCCCCC(=O)*; AEEA = NCCOCCOCC(=O)O; Aib = CC(C)(N)C(=O)O

T1 sequence (P43220 24-463): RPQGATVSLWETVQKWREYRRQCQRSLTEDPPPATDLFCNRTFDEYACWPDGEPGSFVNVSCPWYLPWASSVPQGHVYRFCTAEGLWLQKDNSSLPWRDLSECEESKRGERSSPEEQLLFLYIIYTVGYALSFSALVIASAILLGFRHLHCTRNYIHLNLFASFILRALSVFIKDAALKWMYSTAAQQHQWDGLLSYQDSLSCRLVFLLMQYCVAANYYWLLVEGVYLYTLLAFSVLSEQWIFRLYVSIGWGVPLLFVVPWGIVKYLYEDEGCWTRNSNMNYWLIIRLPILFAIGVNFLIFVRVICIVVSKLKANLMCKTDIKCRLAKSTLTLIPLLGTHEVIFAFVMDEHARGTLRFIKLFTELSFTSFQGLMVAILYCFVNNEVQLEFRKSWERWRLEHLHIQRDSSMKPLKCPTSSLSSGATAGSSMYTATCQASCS

Turning to `CC[C@H](C)[C@H](NC(=O)[C@H](Cc1ccccc1)NC(=O)[C@H](CCCCNC(=O)COCCOCCNC(=O)COCCOCCNC(=O)CC[C@H](NC(=O)CCCCCCCCCCCCC(=O)O)C(=O)O)NC(=O)[C@H](CCCNC(=N)N)NC(=O)[C@@H](NC(=O)[C@H](CCCCNC(=O)COCCOCCNC(=O)COCCOCCNC(=O)CC[C@H](NC(=O)CCCCCCCCCCCCC(=O)O)C(=O)O)NC(=O)[C@H](CCC(N)=O)NC(=O)[C@H](CCC(=O)O)NC(=O)[C@H](CCC(=O)O)NC(=O)[C@H](CC(C)C)NC(=O)[C@H](Cc1ccc(O)cc1)NC(=O)[C@H](CO)NC(=O)[C@H](CO)NC(=O)[C@@H](NC(=O)[C@H](CC(=O)O)NC(=O)[C@H](CO)NC(=O)[C@@H](NC(=O)[C@H](Cc1ccccc1)NC(=O)[C@@H](NC(=O)CNC(=O)[C@H](CCC(=O)O)NC(=O)C(C)(C)NC(=O)[C@@H](N)Cc1c[nH]cn1)[C@@H](C)O)[C@@H](C)O)C(C)C)C(C)C)C(=O)N[C@@H](C)C(=O)N[C@@H](Cc1c[nH]cn1)C(=O)N[C@@H](CC(C)C)C(=O)N[C@H](C(=O)N[C@@H](CCC(N)=O)C(=O)NCC(=O)N[C@@H](CCCNC(=N)N)C(=O)NCC(=O)O)C(C)C` [Example 29, N^ε24-[2-[2-[2-[[2-[2-[2-[[(4S)-4-carboxy-4-(13-carboxytridecanoylamino)butanoyl]amino]ethoxy]ethoxy]acetyl]amino]ethoxy]ethoxy]acetyl], N^ε27-[2-[2-[2-[[2-[2-[2-[[(4S)-4-carboxy-4-(13-carboxytridecanoylamino)butanoyl]amino]ethoxy]ethoxy]acetyl]amino]ethoxy]ethoxy]acetyl]-[Aib^8,Glu^22,Lys^24,Val^25,Arg^26,Lys^27,His^31,Gln^34]-GLP-1-(7-37)-peptide] (H-H[Aib]EGTFTSDVSSYLEEQK([AEEA-AEEA-γGlu-C14 diacid])VRK([AEEA-AEEA-γGlu-C14 diacid])FIAHLVQGRG-OH), at human GLP-1 receptor [1], the “Ratio [(IC50/nM) high HSA]/[(IC50/nM) low HSA]” value came out at 92. The IC50 at human GLP-1 receptor [1] (high albumin, 2.0% HSA, read-out: IC50/nM (high HSA)) was found to be 363 nM; at human GLP-1 receptor [1] (low albumin, 0.001% HSA, read-out: IC50/nM (low HSA)), 3.95 nM. For the same compound, a half-maximal effect at human GLP-1 receptor [2] (EC50) was put at 0.04 nM.
On to `CC[C@H](C)[C@H](NC(=O)[C@H](Cc1ccccc1)NC(=O)[C@H](CCCCNC(=O)COCCOCCNC(=O)COCCOCCNC(=O)CC[C@H](NC(=O)CCCCCCCCCOc1ccc(C(=O)O)cc1)C(=O)O)NC(=O)[C@H](Cc1c[nH]cn1)NC(=O)[C@H](C)NC(=O)[C@H](C)NC(=O)[C@H](CCC(N)=O)NC(=O)[C@H](CCC(=O)O)NC(=O)[C@H](CCC(=O)O)NC(=O)[C@H](CC(C)C)NC(=O)[C@H](Cc1ccc(O)cc1)NC(=O)[C@H](CO)NC(=O)[C@H](CO)NC(=O)[C@@H](NC(=O)[C@H](CC(=O)O)NC(=O)[C@H](CO)NC(=O)[C@@H](NC(=O)[C@H](Cc1ccccc1)NC(=O)[C@@H](NC(=O)CNC(=O)[C@H](CCC(=O)O)NC(=O)[C@H](C)NC(=O)[C@@H](N)Cc1c[nH]cn1)[C@@H](C)O)[C@@H](C)O)C(C)C)C(=O)N[C@@H](CCC(=O)O)C(=O)N[C@@H](Cc1c[nH]c2ccccc12)C(=O)N[C@@H](CC(C)C)C(=O)N[C@H](C(=O)N[C@@H](CCCNC(=N)N)C(=O)NCC(=O)N[C@@H](CCCCNC(=O)COCCOCCNC(=O)COCCOCCNC(=O)CC[C@H](NC(=O)CCCCCCCCCOc1ccc(C(=O)O)cc1)C(=O)O)C(=O)NCC(=O)N[C@@H](CCC(=O)O)C(=O)O)C(C)C` [Example 21, N^ε27-[2-[2-[2-[[2-[2-[2-[[(4S)-4-carboxy-4-[10-(4-carboxyphenoxy)decanoylamino]butanoyl]amino]ethoxy]ethoxy]acetyl]amino]ethoxy]ethoxy]acetyl], N^ε36-[2-[2-[2-[[2-[2-[2-[[(4S)-4-carboxy-4-[10-(4-carboxyphenoxy)decanoylamino]butanoyl]amino]ethoxy]ethoxy]acetyl]amino]ethoxy]ethoxy]acetyl]-[Glu^22,His^26,Lys^27,Glu^30,Arg^34,Lys^36]-GLP-1-(7-37)-peptidyl-Glu] (H-HAEGTFTSDVSSYLEEQAAHK([AEEA-AEEA-γGlu-Decanoyl(10-(4-HOOC-PhO))])FIEWLVRGK([AEEA-AEEA-γGlu-Decanoyl(10-(4-HOOC-PhO))])GE-OH; N-terminus and C-terminus assumed), for which, on human GLP-1 receptor [2], it took 0.052 nM to reach a half-maximal effect (EC50). Besides, the “Dose-corrected exposure at 30 min” value in data set [3] is reported as 140.
Regarding `CC[C@H](C)[C@H](NC(=O)[C@H](Cc1ccccc1)NC(=O)[C@H](CCCCNC(=O)COCCOCCNC(=O)COCCOCCNC(=O)CC[C@H](NC(=O)CCCCCCCCCCCCC(=O)O)C(=O)O)NC(=O)[C@H](CCCNC(=N)N)NC(=O)[C@H](C)NC(=O)[C@H](C)NC(=O)[C@H](CCC(N)=O)NC(=O)[C@H](CCCCNC(=O)COCCOCCNC(=O)COCCOCCNC(=O)CC[C@H](NC(=O)CCCCCCCCCCCCC(=O)O)C(=O)O)NC(=O)[C@H](CCC(=O)O)NC(=O)[C@H](CC(C)C)NC(=O)[C@H](Cc1ccc(O)cc1)NC(=O)[C@H](CO)NC(=O)[C@H](CO)NC(=O)[C@@H](NC(=O)[C@H](CC(=O)O)NC(=O)[C@H](CO)NC(=O)[C@@H](NC(=O)[C@H](Cc1ccccc1)NC(=O)[C@@H](NC(=O)CNC(=O)[C@H](CCC(=O)O)NC(=O)C(C)(C)NC(=O)[C@@H](N)Cc1c[nH]cn1)[C@@H](C)O)[C@@H](C)O)C(C)C)C(=O)N[C@@H](C)C(=O)N[C@@H](Cc1c[nH]cn1)C(=O)N[C@@H](CC(C)C)C(=O)N[C@H](C(=O)NCC(=O)O)C(C)C` [Example 19, N^ε22-[2-[2-[2-[[2-[2-[2-[[(4S)-4-carboxy-4-(13-carboxytridecanoylamino)butanoyl]amino]ethoxy]ethoxy]acetyl]amino]ethoxy]ethoxy]acetyl], N^ε27-[2-[2-[2-[[2-[2-[2-[[(4S)-4-carboxy-4-(13-carboxytridecanoylamino)butanoyl]amino]ethoxy]ethoxy]acetyl]amino]ethoxy]ethoxy]acetyl]-[Aib^8,Lys^22,Arg^26,Lys^27,His^31,Gly^34]-GLP-1-(7-34)-peptide] (H-H[Aib]EGTFTSDVSSYLEK([AEEA-AEEA-γGlu-C14 diacid])QAARK([AEEA-AEEA-γGlu-C14 diacid])FIAHLVG-OH), the “Ratio [(IC50/nM) high HSA]/[(IC50/nM) low HSA]” value at human GLP-1 receptor [1] came out at 60. On human GLP-1 receptor [2], the 50% effective concentration (EC50) stood at 0.052 nM. For the same compound, in data set [3], the “Dose-corrected exposure at 30 min” value was 61.

The record behind these values is patent US11117947B2, “Double-acylated GLP-1 derivatives” (Novo Nordisk A/S, priority 2011, dated 2021).
